The text below walks through data of PubChem BioAssay (NCI).

Each structure is given as a SMILES string.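 Protocol summary: plate cells (96-well), add compound at 5 concentrations, incubate 48 h, interpolate endpoints linearly. The concentration for full growth arrest is given as TGI.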

Among the test systems are T-47D breast; CCRF-CEM leukemia; SR leukemia; BT-549 breast; HOP-62 NSCLC; RPMI-8226 leukemia; NCI-H460 lung; SNB-19 CNS; MCF7 breast; ACHN renal; TK-10 renal; SK-MEL-5 melanoma; MDA-MB-435; SNB-75 CNS; HL-60(TB) leukemia; KM12 colon; MOLT-4 leukemia; UO-31 renal; K-562 leukemia; A498 renal.
Holding throughout (experiment): DTP human tumour cell line panel, 48 h

In the case of `N=C1/C(=C/c2ccco2)C(=O)N=C2SC=NN12`, the TGI in the test on T-47D breast, in the test on CCRF-CEM leukemia, in the test on SR leukemia, with BT-549 breast, with HOP-62 NSCLC and with RPMI-8226 leukemia was > 100 µM each time. For the same compound, the TGI in the test with NCI-H460 lung, in the test on SNB-19 CNS, in the test with MCF7 breast, in the test with ACHN renal, in the test on TK-10 renal and in the test with SK-MEL-5 melanoma was > 100 µM in each case. Moreover, the TGI in the test with MDA-MB-435, in the test with SNB-75 CNS, in the test on HL-60(TB) leukemia, in the test on KM12 colon, in the test with MOLT-4 leukemia and with UO-31 renal was > 100 µM each time. Besides, the TGI in the test on K-562 leukemia was > 100 µM.

As for `O=S(=O)(Nc1nc2ccccc2nc1Nc1cccc2ccccc12)c1ccccc1`, the TGI with T-47D breast is > 100 µM; in the test on SR leukemia, > 100 µM; in the test with BT-549 breast, > 100 µM; in the test with HOP-62 NSCLC, 33 µM; in the test on RPMI-8226 leukemia, > 100 µM; in the test with NCI-H460 lung it was > 100 µM. The TGI in the test on SNB-19 CNS is 61.2 µM; with MCF7 breast it was > 100 µM; in the test on ACHN renal it was > 100 µM; in the test on TK-10 renal, 28.9 µM; with SK-MEL-5 melanoma, > 100 µM; with MDA-MB-435, > 100 µM. Further, the TGI is 57.6 µM with SNB-75 CNS, > 100 µM with KM12 colon, > 100 µM with UO-31 renal and > 100 µM with K-562 leukemia.

On to `O=C1CSC(c2c[nH]c3ccccc23)N1c1cccc([N+](=O)[O-])c1` (stereo not drawn), for which the TGI in the test with T-47D breast, in the test on CCRF-CEM leukemia, in the test with SR leukemia, with BT-549 breast, with HOP-62 NSCLC and in the test with RPMI-8226 leukemia was > 100 µM each time. Further, the concentration for total growth inhibition (TGI) in the test with NCI-H460 lung, with SNB-19 CNS, in the test with MCF7 breast, with TK-10 renal, in the test on SK-MEL-5 melanoma and with MDA-MB-435 was > 100 µM each time. The concentration for total growth inhibition (TGI) in the test on SNB-75 CNS, in the test with HL-60(TB) leukemia, in the test with KM12 colon, with MOLT-4 leukemia, in the test on UO-31 renal and in the test with K-562 leukemia was > 100 µM each time.

As to `C[C@]12CCC(=O)C=C1CC[C@@H]1[C@@H]2CC[C@]2(C)C(=O)/C(=C/c3ccncc3)C[C@@H]12`, the TGI in the test on T-47D breast was 66 µM; in the test on CCRF-CEM leukemia it was > 100 µM; in the test with SR leukemia, 27.1 µM; in the test on BT-549 breast it was 42.5 µM; in the test on HOP-62 NSCLC it was 32.5 µM; in the test with RPMI-8226 leukemia, 35.2 µM. The TGI in the test with NCI-H460 lung came to 29.7 µM; in the test with SNB-19 CNS, 26.8 µM; in the test with MCF7 breast, 24.1 µM; in the test on ACHN renal, 30.5 µM; in the test with TK-10 renal, 38.5 µM; in the test on SK-MEL-5 melanoma, 22.1 µM. Besides, the TGI in the test with MDA-MB-435 came out at 44.9 µM; with SNB-75 CNS, 45.1 µM; in the test with HL-60(TB) leukemia, 31.8 µM; in the test with KM12 colon it was 38.3 µM; in the test with MOLT-4 leukemia it was 64.9 µM; in the test with UO-31 renal, 26.6 µM. For the same compound, in the test with K-562 leukemia, the TGI is > 100 µM.

As to `O=C1C(=Cc2cccc(Cl)c2)N=C(c2ccccc2)N1n1c(-c2ccccc2)nc2ccccc2c1=O`, the total growth inhibition concentration (TGI) in the test on T-47D breast is > 100 µM; in the test on CCRF-CEM leukemia, > 100 µM; with SR leukemia it was > 100 µM; in the test with BT-549 breast it was > 100 µM; with HOP-62 NSCLC, 99.8 µM; in the test on RPMI-8226 leukemia it was > 100 µM. Moreover, the TGI with NCI-H460 lung, in the test on SNB-19 CNS, in the test on MCF7 breast, in the test on ACHN renal, with TK-10 renal and with SK-MEL-5 melanoma was > 100 µM throughout. Further, the TGI in the test with MDA-MB-435, in the test with SNB-75 CNS, in the test on HL-60(TB) leukemia, with KM12 colon, in the test with MOLT-4 leukemia and in the test with UO-31 renal was > 100 µM throughout. Besides, the concentration for total growth inhibition (TGI) with K-562 leukemia is > 100 µM.

On to `Cc1cccc(C)c1NC(=O)C(=O)C(c1ccccc1Cl)S(=O)(=O)Cc1ccccc1Cl` (stereo not drawn), for which the TGI with T-47D breast is > 100 µM; in the test on CCRF-CEM leukemia, > 100 µM; in the test with SR leukemia it was > 100 µM; with BT-549 breast, > 83.5 µM; in the test with HOP-62 NSCLC it was 45.4 µM; in the test on RPMI-8226 leukemia it was > 100 µM. Moreover, the TGI in the test on NCI-H460 lung was > 100 µM; in the test with SNB-19 CNS, > 92 µM; in the test on MCF7 breast it was > 100 µM; with ACHN renal it was > 100 µM; with TK-10 renal it was > 100 µM; with SK-MEL-5 melanoma it was > 100 µM. Moreover, the TGI with MDA-MB-435 was > 100 µM; in the test with SNB-75 CNS, > 44.1 µM; in the test with HL-60(TB) leukemia it was 0.533 µM; in the test with KM12 colon, > 100 µM; in the test with MOLT-4 leukemia, > 100 µM; in the test with UO-31 renal, > 100 µM. Besides, the TGI in the test on K-562 leukemia was > 100 µM.

Regarding `Clc1ccc(-c2c3nc(c(-c4ccc(Cl)cc4)c4ccc([nH]4)c(-c4ccc(Cl)cc4)c4nc(c(-c5ccc(Cl)cc5)c5ccc2[nH]5)C=C4)C=C3)cc1`, the TGI in the test on T-47D breast, in the test on CCRF-CEM leukemia, in the test with SR leukemia, in the test with BT-549 breast, with HOP-62 NSCLC and in the test on RPMI-8226 leukemia was > 100 µM each time. Besides, the TGI in the test on NCI-H460 lung, in the test on SNB-19 CNS, in the test with MCF7 breast, in the test on ACHN renal, with TK-10 renal and in the test with SK-MEL-5 melanoma was > 100 µM each time. Also, the TGI is > 100 µM with MDA-MB-435; 63.4 µM in the test with SNB-75 CNS; > 100 µM in the test on HL-60(TB) leukemia; > 100 µM in the test with KM12 colon; > 100 µM with MOLT-4 leukemia; > 100 µM in the test with UO-31 renal. In addition, in the test with K-562 leukemia, the TGI is > 100 µM.

For `Cn1cc(S(=O)(=O)NC(=O)Nc2ccc(Cl)cc2)c(=O)c2ccc(Cl)cc21`, the TGI with T-47D breast, with CCRF-CEM leukemia, in the test on SR leukemia, in the test on BT-549 breast, in the test on HOP-62 NSCLC and in the test on NCI-H460 lung was > 100 µM each time. In addition, the TGI in the test with SNB-19 CNS, with MCF7 breast, in the test with ACHN renal, with TK-10 renal, in the test with SK-MEL-5 melanoma and in the test with MDA-MB-435 was > 100 µM in each case. Further, the concentration for total growth inhibition (TGI) with SNB-75 CNS, in the test with KM12 colon, in the test with MOLT-4 leukemia, in the test with UO-31 renal and with K-562 leukemia was > 100 µM throughout.

For `c1cc2c(cc1NC1=NCCO1)CCCC2`, the TGI with T-47D breast was > 88.7 µM; in the test with CCRF-CEM leukemia, > 26.7 µM; with BT-549 breast, 75.7 µM; with HOP-62 NSCLC, 10.9 µM; in the test on RPMI-8226 leukemia, 12 µM; in the test with NCI-H460 lung it was 15.7 µM. For the same compound, the TGI was > 84.2 µM with SNB-19 CNS; 41.5 µM in the test with MCF7 breast; 72.9 µM in the test on ACHN renal; 52.5 µM in the test with TK-10 renal; 9.17 µM in the test with SK-MEL-5 melanoma; 4.1 µM in the test with MDA-MB-435. Also, the concentration for total growth inhibition (TGI) with SNB-75 CNS is 35.3 µM; in the test with HL-60(TB) leukemia, 7.5 µM; with A498 renal it was 9.74 µM; in the test with KM12 colon, 10.5 µM; in the test on MOLT-4 leukemia it was 9.67 µM; with UO-31 renal it was 51.8 µM. Also, the total growth inhibition concentration (TGI) in the test with K-562 leukemia was > 24.5 µM.

With `CC(SC(=S)N(C)C)C(=O)Nc1nnc(-c2ccc(Cl)cc2)o1` (stereo not drawn), the TGI was > 100 µM with T-47D breast; 19.9 µM with SR leukemia; > 100 µM with BT-549 breast; > 100 µM with HOP-62 NSCLC; 66.6 µM in the test with RPMI-8226 leukemia; > 100 µM with NCI-H460 lung. In addition, the TGI with SNB-19 CNS, in the test with MCF7 breast, in the test with ACHN renal, in the test on TK-10 renal, in the test on SK-MEL-5 melanoma and with MDA-MB-435 was > 100 µM in each case. The TGI with SNB-75 CNS is > 100 µM; in the test on A498 renal, > 100 µM; in the test on MOLT-4 leukemia, 8.28 µM; in the test on UO-31 renal, > 100 µM; in the test on K-562 leukemia it was > 100 µM.

For the compound `O=C(O)COc1cc(-c2ccccc2F)nc2cc3c(cc12)OCO3`, the TGI with T-47D breast, in the test on CCRF-CEM leukemia, in the test with SR leukemia, with BT-549 breast, in the test on HOP-62 NSCLC and in the test with RPMI-8226 leukemia was > 100 µM throughout. In addition, the TGI in the test on MCF7 breast, in the test on ACHN renal, in the test with TK-10 renal, with SK-MEL-5 melanoma, in the test with MDA-MB-435 and with SNB-75 CNS was > 100 µM each time. In addition, the TGI with KM12 colon, with MOLT-4 leukemia and with K-562 leukemia was > 100 µM each time.

On to `CN(C)CCn1c2c(c3ccccc31)CCc1ccccc1-2`, for which the TGI in the test on T-47D breast is 54.8 µM; with CCRF-CEM leukemia it was 44.6 µM; in the test with SR leukemia it was 27.1 µM; with BT-549 breast, 27.8 µM; with HOP-62 NSCLC, 29.1 µM; in the test on RPMI-8226 leukemia it was 28.3 µM. Also, the TGI was determined as 27.5 µM in the test on NCI-H460 lung; 33.5 µM in the test on SNB-19 CNS; 30.5 µM in the test on MCF7 breast; 29.9 µM in the test with ACHN renal; 30.5 µM in the test with TK-10 renal; 21.1 µM in the test with SK-MEL-5 melanoma. Also, the TGI in the test with MDA-MB-435 was found to be 37.7 µM; in the test with KM12 colon it was 26.3 µM; in the test on MOLT-4 leukemia, 29.1 µM; in the test on UO-31 renal it was 26.8 µM.

As a reminder, the TGI is the concentration at which net growth stops.
